From the supplement of paper PMC12494721
Structures can show the parent of a compound that is named as a salt.

Columns and labels:
Conditions in all cases: incubation time: 27 h, anaerobic, 37 °C
[1] = system: Clostridium sporogenes DSM 1664; test: growth (OD595) fold change vs plate DMSO controls (fold change (ratio)); higher = more growth
[2] = system: Clostridium sporogenes DSM 1664; test: fold change of Tryptamine concentration vs plate DMSO controls (fold change (ratio)); higher = more amine produced
[3] = system: Ruminococcus gnavus DSM 108212; test: growth (OD595) fold change vs plate DMSO controls (fold change (ratio)); higher = more growth
[4] = system: Klebsiella aerogenes DSM 30053; test: as above
[5] = system: Klebsiella aerogenes DSM 30053; test: fold change of Histamine concentration vs plate DMSO controls (fold change (ratio)); higher = more amine produced
Experimental: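 Dose-response follow-up: bacteria (E. coli IAI1, K. aerogenes DSM 30053, C. sporogenes DSM 1664, R. gnavus DSM 108212) were grown anaerobically in mGAM at 37 °C for 27 h with compound at 0.6125-20 µM. Amines were measured in the whole culture by targeted LC-MS/MS. Metabolite fold change and OD595 fold change are relative to plate DMSO controls; n=2 biological replicates. OD fold changes are not clipped, so slightly negative values mean no growth.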

[6] = system: Ruminococcus gnavus DSM 108212; test: fold change of 2-Phenylethylamine concentration vs plate DMSO controls (fold change (ratio)); higher = more amine produced
[7] = system: Ruminococcus gnavus DSM 108212; test: fold change of Tryptamine concentration vs plate DMSO controls (fold change (ratio)); higher = more amine produced
[8] = system: Klebsiella aerogenes DSM 30053; test: fold change of Cadaverine concentration vs plate DMSO controls (fold change (ratio)); higher = more amine produced
[9] = system: Klebsiella aerogenes DSM 30053; test: fold change of Putrescine concentration vs plate DMSO controls (fold change (ratio)); higher = more amine produced

C[C@]1(Cn2ccnn2)[C@H](C(=O)O)N2C(=O)C[C@H]2S1(=O)=O [Tazobactam]
Conditions | fold change of Tryptamine concentration, [2] | growth, [1]
0.6125 µM | 1 | 1.01
1.25 µM | 1.01 | 1.05
2.5 µM | 1.11 | 1.01
5 µM | 1.08 | 1.01
10 µM | 0.984 | 0.648
20 µM | 0.921 | 0.353

CC(=O)OCC1=C(C(=O)O)N2C(=O)[C@@H](NC(=O)Cc3cccs3)[C@H]2SC1 [Cephalothin sodium salt]
Conditions | fold change of Tryptamine concentration, [2] | growth, [1]
0.6125 µM | 0.905 | 0.841
1.25 µM | 0.0953 | 0.629
2.5 µM | 0.0223 | -0.0397
5 µM | 0.0219 | -0.0266
10 µM | 0.0236 | -0.0343
20 µM | 0.0234 | -0.0372

NCc1ccccc1CC(=O)N[C@@H]1C(=O)N2C(C(=O)O)=C(CSc3nnnn3CC(=O)O)CS[C@H]12 [Ceforanide]
Conditions | fold change of Tryptamine concentration, [2] | growth, [1]
0.6125 µM | 0.989 | 0.842
1.25 µM | 1 | 0.767
2.5 µM | 1.04 | 0.564
5 µM | 0.576 | 0.36
10 µM | 0.035 | -0.0035
20 µM | 0.0236 | -0.0325

N[C@@H](C(=O)N[C@@H]1C(=O)N2C(C(=O)O)=C(Cl)CC[C@H]12)c1ccccc1 [Loracarbef]
Conditions | fold change of Tryptamine concentration, [2] | growth, [1]
0.6125 µM | 0.974 | 1.15
1.25 µM | 0.86 | 0.723
2.5 µM | 0.0468 | -0.0147
5 µM | 0.0243 | -0.0473
10 µM | 0.0223 | -0.0388
20 µM | 0.0215 | -0.0407

CC(=O)Oc1ccccc1C(=O)Nc1ncc([N+](=O)[O-])s1 [Nitazoxanide]
Conditions | fold change of Tryptamine concentration, [2] | growth, [1]
0.6125 µM | 1.01 | 1.24
1.25 µM | 0.989 | 1.23
2.5 µM | 0.993 | 1.29
5 µM | 0.314 | 0.809
10 µM | 0.0174 | -0.0196
20 µM | 0.0175 | -0.0243

CC=CC1=C(C(=O)O)N2C(=O)[C@@H](NC(=O)[C@H](N)c3ccc(O)cc3)[C@H]2SC1 [Cefprozil]
Conditions | fold change of Tryptamine concentration, [2] | growth, [1]
0.6125 µM | 1 | 1.1
1.25 µM | 0.973 | 0.85
2.5 µM | 1 | 1.02
5 µM | 0.974 | 0.79
10 µM | 0.926 | 0.573
20 µM | 0.722 | 0.194

CC(C)/N=c1\cc2n(-c3ccc(Cl)cc3)c3ccccc3nc-2cc1Nc1ccc(Cl)cc1 [Clofazimine]
Conditions | fold change of Tryptamine concentration, [2] | growth, [1]
0.6125 µM | 0.975 | 1.11
1.25 µM | 0.893 | 1.34
2.5 µM | 0.681 | 1.22
5 µM | 0.365 | 0.64
10 µM | 0.379 | 0.578
20 µM | 0.0193 | -0.0109

Oc1c(Cl)cc(Cl)c(Cl)c1Cc1c(O)c(Cl)cc(Cl)c1Cl [Hexachlorophene]
Conditions | fold change of Tryptamine concentration, [2] | growth, [1]
0.6125 µM | 1.1 | 1.05
1.25 µM | 1.03 | 0.819
2.5 µM | 1.09 | 0.779
5 µM | 0.693 | 0.711
10 µM | 0.0218 | -0.0128
20 µM | 0.0164 | -0.032

Cc1ncc([N+](=O)[O-])n1CC(C)O (stereo not drawn) [Secnidazole]
Conditions | fold change of Tryptamine concentration, [2] | growth, [1]
0.6125 µM | 0.901 | 0.982
1.25 µM | 0.773 | 1.11
2.5 µM | 0.735 | 1.16
5 µM | 0.035 | 0.156
10 µM | 0.026 | -0.0233
20 µM | 0.0204 | -0.023

CC1(C)S[C@@H]2[C@H](NC(=O)[C@H](N)c3ccccc3)C(=O)N2[C@H]1C(=O)OC1OC(=O)c2ccccc21 (stereo partly drawn) [Talampicillin hydrochloride]
Conditions | fold change of 2-Phenylethylamine concentration, [6] | fold change of Cadaverine concentration, [8] | fold change of Histamine concentration, [5] | fold change of Putrescine concentration, [9] | fold change of Tryptamine concentration, [7] | growth, [3] | growth, [4]
0.6125 µM | 0.103 | 0.97 | 0.999 | 1.03 | 0.121 | 1.73 | 0.802
1.25 µM | 0.105 | 0.967 | 0.862 | 1.05 | 0.116 | 0.81 | 0.804
2.5 µM | 0.112 | 0.958 | 1.31 | 1.01 | 0.136 | 0.918 | 0.905
5 µM | 0.1 | 1.03 | 1.27 | 1.08 | 0.13 | 1.33 | 1.1
10 µM | 0.138 | 1.09 | 0.959 | 1.11 | 0.174 | 0.729 | 1.1
20 µM | 0.102 | 1.17 | 0.912 | 1.12 | 0.135 | 0.199 | 0.477

O=C1NCCN1c1ncc([N+](=O)[O-])s1 [Niridazole]
Conditions | fold change of Tryptamine concentration, [2] | growth, [1]
0.6125 µM | 0.708 | 1.08
1.25 µM | 0.607 | 1.15
2.5 µM | 0.181 | 0.588
5 µM | 0.0568 | 0.258
10 µM | 0.0233 | -0.0146
20 µM | 0.018 | -0.0213

Cc1cc(C(C#N)c2ccc(Cl)cc2)c(Cl)cc1NC(=O)c1cc(I)cc(I)c1O (stereo not drawn) [Closantel]
Conditions | fold change of Tryptamine concentration, [2] | growth, [1]
0.6125 µM | 0.999 | 0.882
1.25 µM | 1.02 | 0.866
2.5 µM | 0.991 | 0.792
5 µM | 0.895 | 0.749
10 µM | 0.367 | 0.364
20 µM | 0.0184 | -0.0258

O=[N+]([O-])c1ccc(O)c2ncccc12 [Nitroxoline]
Conditions | fold change of Cadaverine concentration, [8] | fold change of Histamine concentration, [5] | fold change of Putrescine concentration, [9] | growth, [4]
0.6125 µM | 0.967 | 0.949 | 1.04 | 0.817
1.25 µM | 0.966 | 0.911 | 1.03 | 0.815
2.5 µM | 0.935 | 1.16 | 1.02 | 0.882
5 µM | 0.971 | 0.926 | 1.06 | 0.884
10 µM | 0.966 | 1.02 | 0.997 | 0.646
20 µM | 0.977 | 0.852 | 1.01 | 0.584
